From patent US10029994B2, “Isoxazole hydroxamic acid compounds as LpxC inhibitors” (priority 2014, dated 2018) come the findings set out here.

For one experiment, the target named is T1, P. aeruginosa LpxC (Pseudomonas aeruginosa, UniProt P47205).
T1 construct: made in house
T1 sequence (P47205 1-303): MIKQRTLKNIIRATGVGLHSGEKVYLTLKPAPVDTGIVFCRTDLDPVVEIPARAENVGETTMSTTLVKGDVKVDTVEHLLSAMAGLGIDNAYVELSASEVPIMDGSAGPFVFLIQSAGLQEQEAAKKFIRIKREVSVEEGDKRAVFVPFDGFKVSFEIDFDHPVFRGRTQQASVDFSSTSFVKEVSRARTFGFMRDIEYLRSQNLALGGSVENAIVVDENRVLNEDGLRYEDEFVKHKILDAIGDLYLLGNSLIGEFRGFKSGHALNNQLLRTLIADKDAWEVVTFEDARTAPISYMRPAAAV
The experiment in a line: P. aeruginosa LpxC Inhibition Assay (LC-MS/MS). The conditions noted are these: 1 nM P. aeruginosa LpxC, 30 min pre-incubation, 2 μM UDP-3-O-(R-3-hydroxydecanoyl)-GlcNAc, pH 7.5. The experiment is classed as biochemical. The text has this:
P. aeruginosa LpxC Inhibition Assay
The P. aeruginosa LpxC protein is produced according to the general method of Hyland et al (Journal of Bacteriology 1997 179, 2029-2037: Cloning, expression and purification of UDP-3-O-acyl-GlcNAc deacetylase from Pseudomonas aeruginosa: a metalloamidase of the lipid A biosynthesis pathway). The LC-MS/MS method for quantitation of LpxC product was developed using an Agilent 1200 Capillary HPLC system coupled to an Applied Biosystems MDS Sciex 4000QTRAP mass spectrometer. Both instruments are controlled using the Applied Biosystems MDS Sciex Analyst software. LpxC reaction product (UDP-3-O—(R-3-hydroxyacyl)-glucosamine) was produced by hydrolysis of LpxC substrate catalyzed by P.a. LpxC and purified using reversed phase chromatography on a Phenomenex Luna C18(2) 4.6×50 mm column. An LpxC product calibration curve was generated to evaluate the sensitivity and dynamic range of the LC-MS/MS method. Briefly, compounds are pre-incubated with 1 nM P. aeruginosa LpxC for 30 min. at room temperature. Reactions are initiated by the addition of 2 μM UDP-3-O—(R-3-hydroxydecanoyl)-GlcNAc. Reactions are conducted in a 384-well plate with a total volume of 50 μL in each well containing 50 mM Sodium phosphate pH 7.5, 0.005% Trition X-100 for 20 min at room temperature. After quenching with 1.8% HOAc (5 μL of a 20% HOAc added to each well), reaction mixtures are analyzed using the LC-MS/MS method and peak areas are transformed into product concentration using a LpxC product calibration curve. Total activity (0% inhibition control) is obtained from reactions with no inhibitors and 100% inhibition control is the background using quenched samples before reaction starts. For IC50 determinations, peak areas are converted to percent inhibition in Microsoft Excel. Percent inhibition values are plotted vs. log compound concentration using XLfit. Data is fit to the four-parameter logistic equation using the non-linear regression algorithm in XLfit to return the IC50 and hill slope values.

The subject of a further experiment is P. A. PAO1 NB52019. The experiment in a line: MIC, broth microdilution (CLSI). The experiment is classed as cell-based, Pseudomonas aeruginosa. To be noted: Pseudomonas aeruginosa, read-out: P. A. PAO1 NB52019 MIC. The procedure:
(§1) Bacterial isolates were cultivated from −70° C. frozen stocks by two consecutive overnight passages at 35° C. in ambient air on 5% blood agar (Remel, Lenexa, Kans.). Quality control strain, P. aeruginosa ATCC 27853, A. baumannii ATCC19606 and E. coli ATCC 25922 are from the American Type Culture Collection (ATCC; Rockville, Md.) and PAO1 was received from Dr. K. Poole.
(§2) Minimal Inhibitory Concentrations (MICs) were determined by the broth microdilution method in accordance with Clinical and Laboratories Institute (CLSI) guidelines (CLSI M100-S25, Performance Standards for Antimicrobial Susceptibility Testing; Twenty-fifth Informational Supplement). In brief, fresh bacterial overnight cultures were resuspended in sterile saline, adjusted to a 0.5 McFarland turbidity standard and then diluted 2000-fold in cation adjusted Mueller-Hinton Broth II (MHB; Remel BBL) to yield a final inoculum of approximately 5×10^5 colony-forming units (CFU)/mL. Two-fold serial dilutions of compounds were prepared in 100% dimethyl sulfoxide (DMSO) at 100-fold the highest final assay concentration; the resulting dilution series of compounds were diluted 1:10 with sterile water. Ten μl of the drug dilution series in 10% DMSO was transferred to microtiter wells and 90 μl of bacterial suspension was inoculated into the wells. For testing the ability of compounds to potentiate the activity of known antibiotics, the assay was modified as follows; known antibiotics were added to the bacterial inoculum at 1.1-fold the final assay concentration indicated in Table A. All inoculated microdilution trays were incubated in ambient air at 35° C. for 20 hours. Following incubation, assay plates were read in a microtiter plate reader at 600 nm and visually inspected to confirm the MIC endpoint well with the OD value. The lowest concentration of the compound that prevented visible growth was recorded as the MIC. Performance of the assay was monitored by testing ciprofloxacin against the laboratory quality control strain in accordance with guidelines of the CLSI.
(Broth dilution looks for growth in wells or tubes with falling amounts of substance.)

For the next experiment, the system named is E. C. ATCC 25922. The experiment in a line: MIC, broth microdilution (CLSI). The experiment is classed as cell-based, Escherichia coli. The conditions noted are these: Escherichia coli, ATCC25922, 20 h, read-out: E. C. ATCC 25922 MIC. The procedure:
as §1, §2

Another experiment deals with E. C. ATCC 29522. The experiment in a line: MIC in the presence of sub-inhibitory rifampicin (potentiation/synergy). The class given is cell-based, Escherichia coli. To be noted: +2 μg/ml rifampicin (RIF); broth microdilution, 35° C., 20 hours. The procedure:
as §1, §2

The test system of experiment [1] is A. B. ATCC 19606. Kind of experiment: MIC, broth microdilution (CLSI). To be noted: Acinetobacter baumannii, read-out: A. B. ATCC 19606 MIC. The experiment is classed as cell-based, Acinetobacter baumannii. The procedure: as §1, §2
The subject of experiment [2] is A. B. ATCC 19606. The experiment in a line: MIC in the presence of sub-inhibitory rifampicin (potentiation/synergy). The experiment is classed as cell-based, Acinetobacter baumannii. To be noted: +2 μg/ml rifampicin (RIF); broth microdilution, 35° C., 20 hours. As to the method: as §1, §2
The mark [3] stands for this setting: PAO1, broth microdilution, 35° C., 20 hours.
Where [4] appears, read: broth microdilution, 35° C., 20 hours.
Where [5] appears, read: ATCC19606, broth microdilution, 35° C., 20 hours.

Structures are written as SMILES. Where two headings read alike, the source gives them in different places.

The IC50 is the midpoint of a concentration-inhibition curve. Read a low IC50 as higher potency. Broadly, the MIC is the least concentration at which growth counts as inhibited. `C[C@@H](O)Cc1ccc(C#Cc2cc(CCC(C)(C(=O)NO)S(C)(=O)=O)no2)cc1` (stereo partly drawn) [Compound 2.5, N-hydroxy-4-(5-((4-((R)-2-hydroxypropyl)phenyl)ethynyl)isoxazol-3-yl)-2-methyl-2-(methylsulfonyl)butanamide]: the IC50 at P. aeruginosa LpxC was under 1 nM. The MIC with P. A. PAO1 NB52019 (setting [3]) is 1 µg/mL; with E. C. ATCC 25922 (setting [4]) it was 0.25 µg/mL; in the experiment on A. B. ATCC 19606 [1] (setting [5]) it was over 64 µg/mL. Moreover, the “E. C. ATCC 29522 (+2 μg/ml RIF) MIC” value in the experiment with E. C. ATCC 29522 was 0.125 µg/mL. Besides, in the experiment with A. B. ATCC 19606 [2], the “A. B. ATCC 19606 (+2 μg/ml RIF) MIC” value amounted to 0.5 µg/mL.

With `CO[C@H](CO)c1ccc(C#Cc2cc(CC[C@](C)(C(=O)NO)S(C)(=O)=O)no2)cc1` [Compound 2.6, (R)—N-hydroxy-4-(5-((4-((S)-2-hydroxy-1-methoxyethyl)phenyl)ethynyl)-isoxazol-3-yl)-2-methyl-2-(methylsulfonyl)butanamide], the IC50 against P. aeruginosa LpxC is under 1 nM. For the same molecule, the results for the MIC in the experiment on P. A. PAO1 NB52019 (setting [3]), in the experiment with E. C. ATCC 25922 (setting [4]) and in the experiment on A. B. ATCC 19606 [1] (setting [5]) were 0.25 µg/mL, 0.5 µg/mL and over 64 µg/mL, respectively. The “E. C. ATCC 29522 (+2 μg/ml RIF) MIC” value with E. C. ATCC 29522 was determined as 0.125 µg/mL. Besides, in the experiment on A. B. ATCC 19606 [2], the “A. B. ATCC 19606 (+2 μg/ml RIF) MIC” value is 1 µg/mL.

Turning to `C[C@@](CCc1cc(C#Cc2ccc([C@H](O)CO)cc2)on1)(C(=O)NO)S(C)(=O)=O` [Compound 2.7, (R)-4-(5-((4-((S)-1,2-dihydroxyethyl)phenyl)ethynyl)isoxazol-3-yl)-N-hydroxy-2-methyl-2-(methylsulfonyl)butanamide], the IC50 on P. aeruginosa LpxC was under 1 nM. In addition, the results for the MIC in the experiment with P. A. PAO1 NB52019 (setting [3]), with E. C. ATCC 25922 (setting [4]) and in the experiment with A. B. ATCC 19606 [1] (setting [5]) were 0.25 µg/mL, 1 µg/mL and over 64 µg/mL, respectively. In addition, the “E. C. ATCC 29522 (+2 μg/ml RIF) MIC” value with E. C. ATCC 29522 was 0.125 µg/mL. In addition, the “A. B. ATCC 19606 (+2 μg/ml RIF) MIC” value in the experiment on A. B. ATCC 19606 [2] was 6 µg/mL.

`C[C@@](CCc1cc(C#Cc2ccc([C@@H](O)CO)cc2)on1)(C(=O)NO)S(C)(=O)=O` [Compound 2.8, (R)-4-(5-((4-((R)-1,2-dihydroxyethyl)phenyl)ethynyl)isoxazol-3-yl)-N-hydroxy-2-methyl-2-(methylsulfonyl)butanamide] gave an IC50 against P. aeruginosa LpxC of under 1 nM. The MIC is 0.25 µg/mL in the experiment on P. A. PAO1 NB52019 (setting [3]), 1 µg/mL in the experiment on E. C. ATCC 25922 (setting [4]) and over 64 µg/mL with A. B. ATCC 19606 [1] (setting [5]). Besides, in the experiment with E. C. ATCC 29522, the “E. C. ATCC 29522 (+2 μg/ml RIF) MIC” value is 0.125 µg/mL. In addition, in the experiment with A. B. ATCC 19606 [2], the “A. B. ATCC 19606 (+2 μg/ml RIF) MIC” value is 1 µg/mL.

In the case of `Cc1cc([C@H](O)[C@](C)(NCc2cc(C#CC3CC3)on2)C(=O)NO)no1` [Compound 3.1, (2S,3R)-2-(((5-(cyclopropylethynyl)isoxazol-3-yl)methyl)amino)-N,3-dihydroxy-2-methyl-3-(5-methylisoxazol-3-yl)propanamide], the IC50 against P. aeruginosa LpxC was under 1 nM. In addition, the MIC was 0.5 µg/mL in the experiment with P. A. PAO1 NB52019 (PAO1, 20 h); 1 µg/mL in the experiment with E. C. ATCC 25922; over 64 µg/mL in the experiment with A. B. ATCC 19606 [1] (ATCC19606, 20 h). The “E. C. ATCC 29522 (+2 μg/ml RIF) MIC” value in the experiment on E. C. ATCC 29522 is at most 0.06 µg/mL. For the same molecule, the “A. B. ATCC 19606 (+2 μg/ml RIF) MIC” value in the experiment with A. B. ATCC 19606 [2] was at most 0.06 µg/mL.
